Structures are written as SMILES. ≈ marks a conversion by molar mass, not a printed value.

For one experiment, the system named is Botrytis cinerea. Nature of the experiment: Antifungal activity against benzimidazole moderately resistant Botryotinia fuckeliana BC-JfC02 assessed as inhibition of mycelium growth after 3 days followed by 96 hr incubation in light incubator. The format is functional, organism-based.
The test system of the next experiment is Sclerotinia sclerotiorum. Nature of the experiment: Antifungal activity against benzimidazole-sensitive Sclerotinia sclerotiorum SS-JSZ01 assessed as inhibition of mycelium growth after 3 days followed by 96 hr incubation in light incubator. Type of experiment: functional, organism-based.

By EC50 is commonly meant the concentration that produces a half-maximal response. Take `Fc1ccc(CSc2nnc(-c3nc4ccccc4n3Cc3ccc(F)cc3)o2)cc1`: the concentration giving a half-maximal response (EC50) was determined as 13.9 µg/mL (≈ 32.1 µM) with Botrytis cinerea and 7.52 µg/mL (≈ 17.3 µM) in the experiment on Sclerotinia sclerotiorum.
For `Fc1ccc(Cn2c(-c3nnc(SCc4ccc(Cl)cc4)o3)nc3ccccc32)cc1`, in that order: 6.07 µg/mL (≈ 13.5 µM) and 0.43 µg/mL (≈ 0.954 µM).
Consider `Fc1ccc(Cn2c(-c3nnc(SCc4ccc(Cl)cc4Cl)o3)nc3ccccc32)cc1`, for which the EC50 amounted to 7.81 µg/mL (≈ 16.1 µM) in the experiment with Botrytis cinerea and 0.55 µg/mL (≈ 1.13 µM) in the experiment on Sclerotinia sclerotiorum.
With `CC(C)Sc1nnc(-c2nc3ccccc3[nH]2)o1`, the EC50 in the experiment on Botrytis cinerea worked out at 24.1 µg/mL (≈ 92.8 µM); in the experiment with Sclerotinia sclerotiorum it was 23.4 µg/mL (≈ 89.8 µM).
In the same order, the values of `CCCCSc1nnc(-c2nc3ccccc3[nH]2)o1` are 9.86 µg/mL (≈ 35.9 µM) and 9.12 µg/mL (≈ 33.2 µM).
`c1ccc(CSc2nnc(-c3nc4ccccc4[nH]3)o2)cc1`: the figures for the EC50 with Botrytis cinerea and in the experiment with Sclerotinia sclerotiorum were 18.4 µg/mL (≈ 59.6 µM) and 22.9 µg/mL (≈ 74.4 µM), respectively.
For `Fc1ccc(CSc2nnc(-c3nc4ccccc4[nH]3)o2)cc1`, in that order: 12.8 µg/mL (≈ 39.1 µM) and 20.5 µg/mL (≈ 62.7 µM).
For `Clc1ccc(CSc2nnc(-c3nc4ccccc4[nH]3)o2)cc1`, in that order: 14.8 µg/mL (≈ 43.3 µM) and 9.1 µg/mL (≈ 26.5 µM).
Consider `Clc1ccc(CSc2nnc(-c3nc4ccccc4[nH]3)o2)c(Cl)c1`, for which the figures for the EC50 in the experiment with Botrytis cinerea and in the experiment with Sclerotinia sclerotiorum were 16.4 µg/mL (≈ 43.4 µM) and 22.7 µg/mL (≈ 60.3 µM), respectively.
Consider `CSc1nnc(-c2nc3ccccc3n2Cc2ccc(F)cc2)o1`, for which the figures for the EC50 in the experiment on Botrytis cinerea and with Sclerotinia sclerotiorum were 14 µg/mL (≈ 41 µM) and 12.4 µg/mL (≈ 36.3 µM), respectively.
For `CCSc1nnc(-c2nc3ccccc3n2Cc2ccc(F)cc2)o1`, in that order: 3.08 µg/mL (≈ 8.69 µM) and 8.86 µg/mL (≈ 25 µM).
For `CCCSc1nnc(-c2nc3ccccc3n2Cc2ccc(F)cc2)o1`, in that order: 5.63 µg/mL (≈ 15.3 µM) and 2.03 µg/mL (≈ 5.51 µM).
For `CC(C)Sc1nnc(-c2nc3ccccc3n2Cc2ccc(F)cc2)o1`, in that order: 11.4 µg/mL (≈ 30.9 µM) and 10.2 µg/mL (≈ 27.5 µM).
Consider `CCCCSc1nnc(-c2nc3ccccc3n2Cc2ccc(F)cc2)o1`, for which the EC50 in the experiment on Botrytis cinerea was 6.26 µg/mL (≈ 16.4 µM); in the experiment with Sclerotinia sclerotiorum it was 0.94 µg/mL (≈ 2.46 µM).
In the same order, the values of `Fc1ccc(Cn2c(-c3nnc(SCc4ccccc4)o3)nc3ccccc32)cc1` are 1.31 µg/mL (≈ 3.15 µM) and 0.04 µg/mL (≈ 0.096 µM).
As to `CSc1nnc(-c2nc3ccccc3[nH]2)o1`, the EC50 with Botrytis cinerea came to 10.6 µg/mL (≈ 45.5 µM); in the experiment on Sclerotinia sclerotiorum, 2.04 µg/mL (≈ 8.78 µM).
In the same order, the values of `CCSc1nnc(-c2nc3ccccc3[nH]2)o1` are 2.7 µg/mL (≈ 11 µM) and 1.31 µg/mL (≈ 5.32 µM).
For `CCCSc1nnc(-c2nc3ccccc3[nH]2)o1`, in that order: 16.6 µg/mL (≈ 63.6 µM) and 18.2 µg/mL (≈ 70 µM).
In the same order, the values of `COC(=O)Nc1nc2ccccc2[nH]1` [CARBENDAZIM] are 7.4 µg/mL (≈ 38.7 µM) and 0.13 µg/mL (≈ 0.68 µM).

The record behind these values is ChEMBL document CHEMBL3045493, “Synthesis and antifungal activity of novel 2,5-disubstituted-1,3,4-oxadiazoles containing benzimidazole moiety” (J Pestic Sci, 2012).
